Patent US20240132431A1, “METHOD FOR ALKYLATING ACIDIC FUNCTIONAL GROUP” (Chugai Seiyaku Kabushiki Kaisha, priority 2021, published 2024)

Molecular target: T1, Bcl-2 protein (Recombinant Human Bcl-2 Protein) (Homo sapiens, UniProt P10415)
T1 construct: purchased Novus NBP2-34889
Assay: Binding evaluation of mixture library compounds to Bcl-2 using AS-MS (affinity selection mass spectrometry)
In short: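 Affinity selection MS: Bcl-2 20 μM + 1200-cpd mixture, […]/cpd, Tris pH 7.4 buffer w/ Tween-20, DTT; 1 h 23° C dark; P-2 spin SEC; MeCN/MeOH extraction; RP LC/MS. ASMS Ratio(%) = (A−C)/B×100.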

T1 sequence (P10415 whole entry): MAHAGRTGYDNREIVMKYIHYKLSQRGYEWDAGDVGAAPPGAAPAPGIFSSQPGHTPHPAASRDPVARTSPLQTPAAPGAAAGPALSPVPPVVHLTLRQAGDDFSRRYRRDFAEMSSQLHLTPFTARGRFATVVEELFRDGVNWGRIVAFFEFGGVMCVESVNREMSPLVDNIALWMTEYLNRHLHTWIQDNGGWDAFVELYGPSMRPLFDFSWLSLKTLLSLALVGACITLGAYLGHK

SMILES	ASMS ratio (%) (n = 1)	ASMS ratio (%) (n = 2)
CCOc1cccc(-c2cc(CN3CCN(c4ccc(C(=O)NS(=O)(=O)C(C)(C)C)nn4)CC3)cc(OC(C)C)c2)c1 [B2L083-01, N-tert-Butylsulfonyl-6-[4-[[3-(3-ethoxyphenyl)-5-propan-2-yloxyphenyl]methyl]piperazin-1-yl]pyridazine-3-carboxamide]	0.0	0.0
CCOc1cncc(-c2cc(CN3CCN(c4ccc(C(=O)NS(=O)(=O)C(C)(C)C)nn4)CC3)cc(OC(C)C)c2)c1 [B2L084-01, N-tert-Butylsulfonyl-6-[4-[[3-(5-ethoxypyridin-3-yl)-5-propan-2-yloxyphenyl]methyl]piperazin-1-yl]pyridazine-3-carboxamide]	−3.0	−1.9
CCOc1cccc(-c2cc(OC)c(CN3CCN(c4ccc(C(=O)NS(=O)(=O)C(C)(C)C)nn4)CC3)c(OC)c2)c1 [B2L085-01, N-tert-Butylsulfonyl-6-[4-[[4-(3-ethoxyphenyl)-2,6-dimethoxyphenyl]methyl]piperazin-1-yl]pyridazine-3-carboxamide]	0.0	0.0
CCOc1cccc(-c2cc(CN3CCN(c4ccc(C(=O)NS(=O)(=O)C(C)(C)C)nn4)CC3)cc(C(F)(F)F)c2)c1 [B2L087-01, N-tert-Butylsulfonyl-6-[4-[[3-(3-ethoxyphenyl)-5-(trifluoromethyl)phenyl]methyl]piperazin-1-yl]pyridazine-3-carboxamide]	1.9	−24.6
CCOc1cncc(-c2cc(CN3CCN(c4ccc(C(=O)NS(=O)(=O)C(C)(C)C)nn4)CC3)cc(C(F)(F)F)c2)c1 [B2L088-01, N-tert-Butylsulfonyl-6-[4-[[3-(5-ethoxypyridin-3-yl)-5-(trifluoromethyl)phenyl]methyl]piperazin-1-yl]pyridazine-3-carboxamide]	0.0	2.8
CCOc1cccc(-c2cc(CN3CCN(c4ccc(C(=O)NS(=O)(=O)C(C)(C)C)nn4)CC3)cc(OC(F)(F)F)c2)c1 [B2L089-01, N-tert-Butylsulfonyl-6-[4-[[3-(3-ethoxyphenyl)-5-(trifluoromethoxy)phenyl]methyl]piperazin-1-yl]pyridazine-3-carboxamide]	0.0	0.0
CCOc1cncc(-c2cc(CN3CCN(c4ccc(C(=O)NS(=O)(=O)C(C)(C)C)nn4)CC3)cc(OC(F)(F)F)c2)c1 [B2L090-01, N-tert-Butylsulfonyl-6-[4-[[3-(5-ethoxypyridin-3-yl)-5-(trifluoromethoxy)phenyl]methyl]piperazin-1-yl]pyridazine-3-carboxamide]	0.0	0.0
CCOc1cccc(-c2ccc(CN3CCN(c4ccc(C(=O)NS(=O)(=O)C(C)(C)C)nn4)CC3)c3ccccc23)c1 [B2L091-01, N-tert-Butylsulfonyl-6-[4-[[4-(3-ethoxyphenyl)naphthalen-1-yl]methyl]piperazin-1-yl]pyridazine-3-carboxamide]	0.0	0.0
CCOc1cncc(-c2ccc(CN3CCN(c4ccc(C(=O)NS(=O)(=O)C(C)(C)C)nn4)CC3)c3ccccc23)c1 [B2L092-01, N-tert-Butylsulfonyl-6-[4-[[4-(5-ethoxypyridin-3-yl)naphthalen-1-yl]methyl]piperazin-1-yl]pyridazine-3-carboxamide]	5.5	7.8
CCOc1cccc(-c2csc(CN3CCN(c4ccc(C(=O)NS(=O)(=O)C(C)(C)C)nn4)CC3)c2)c1 [B2L093-01, N-tert-Butylsulfonyl-6-[4-[[4-(3-ethoxyphenyl)thiophen-2-yl]methyl]piperazin-1-yl]pyridazine-3-carboxamide]	–	0.0
CCOc1cncc(-c2csc(CN3CCN(c4ccc(C(=O)NS(=O)(=O)C(C)(C)C)nn4)CC3)c2)c1 [B2L094-01, N-tert-Butylsulfonyl-6-[4-[[4-(5-ethoxypyridin-3-yl)thiophen-2-yl]methyl]piperazin-1-yl]pyridazine-3-carboxamide]	0.2	1.8
CCOc1cccc(C#Cc2ccccc2CN2CCN(c3ccc(C(=O)NS(=O)(=O)C(C)(C)C)nn3)CC2)c1 [B2L095-01, N-tert-Butylsulfonyl-6-[4-[[2-[2-(3-ethoxyphenyl)ethynyl]phenyl]methyl]piperazin-1-yl]pyridazine-3-carboxamide]	0.0	0.0
CCOc1cncc(C#Cc2ccccc2CN2CCN(c3ccc(C(=O)NS(=O)(=O)C(C)(C)C)nn3)CC2)c1 [B2L096-01, N-tert-Butylsulfonyl-6-[4-[[2-[2-(5-ethoxypyridin-3-yl)ethynyl]phenyl]methyl]piperazin-1-yl]pyridazine-3-carboxamide]	0.0	0.0
CCOc1cccc(-c2ccc(C(C)N3CCN(c4ccc(C(=O)NS(=O)(=O)C(C)(C)C)cc4)CC3)cc2)c1 (stereo not drawn) [B2L097-01, N-tert-Butylsulfonyl-4-[4-[1-[4-(3-ethoxyphenyl)phenyl]ethyl]piperazin-1-yl]benzamide]	0.0	0.0
CCOc1cncc(-c2ccc(C(C)N3CCN(c4ccc(C(=O)NS(=O)(=O)C(C)(C)C)cc4)CC3)cc2)c1 (stereo not drawn) [B2L098-01, N-tert-Butylsulfonyl-4-[4-[1-[4-(5-ethoxypyridin-3-yl)phenyl]ethyl]piperazin-1-yl]benzamide]	3.9	−5.0
CCOc1cncc(-c2ccc(C(C)N3CCN(c4ccc(C(=O)NS(=O)(=O)C(C)(C)C)cc4)CC3)c(F)c2)c1 (stereo not drawn) [B2L100-01, N-tert-Butylsulfonyl-4-[4-[1-[4-(5-ethoxypyridin-3-yl)-2-fluorophenyl]ethyl]piperazin-1-yl]benzamide]	0.0	0.0
CCOc1cccc(-c2csc(C(=O)N3CCN(c4ccc(C(=O)NS(=O)(=O)CCC(F)(F)F)nn4)CC3)c2)c1 [B2N001-01, 6-[4-[4-(3-Ethoxyphenyl)thiophene-2-carbonyl]piperazin-1-yl]-N-(3,3,3-trifluoropropylsulfonyl)pyridazine-3-carboxamide]	–	0.0
CCOc1cncc(-c2csc(C(=O)N3CCN(c4ccc(C(=O)NS(=O)(=O)CCC(F)(F)F)nn4)CC3)c2)c1 [B2N002-01, 6-[4-[4-(5-Ethoxypyridin-3-yl)thiophene-2-carbonyl]piperazin-1-yl]-N-(3,3,3-trifluoropropylsulfonyl)pyridazine-3-carboxamide]	0.0	0.0
CCOc1cccc(-c2ccc(C(=O)N3CCN(c4ccc(C(=O)NS(=O)(=O)CCC(F)(F)F)nn4)CC3)cc2C)c1 [B2N003-01, 6-[4-[4-(3-Ethoxyphenyl)-3-methylbenzoyl]piperazin-1-yl]-N-(3,3,3-trifluoropropylsulfonyl)pyridazine-3-carboxamide]	0.0	0.0
CCOc1cncc(-c2ccc(C(=O)N3CCN(c4ccc(C(=O)NS(=O)(=O)CCC(F)(F)F)nn4)CC3)cc2C)c1 [B2N004-01, 6-[4-[4-(5-Ethoxypyridin-3-yl)-3-methylbenzoyl]piperazin-1-yl]-N-(3,3,3-trifluoropropylsulfonyl)pyridazine-3-carboxamide]	1.2	−2.0
CCOc1cccc(C#Cc2ccccc2C(=O)N2CCN(c3ccc(C(=O)NS(=O)(=O)CCC(F)(F)F)nn3)CC2)c1 [B2N007-01, 6-[4-[2-[2-(3-Ethoxyphenyl)ethynyl]benzoyl]piperazin-1-yl]-N-(3,3,3-trifluoropropylsulfonyl)pyridazine-3-carboxamide]	0.0	0.0
CCOc1cncc(C#Cc2ccccc2C(=O)N2CCN(c3ccc(C(=O)NS(=O)(=O)CCC(F)(F)F)nn3)CC2)c1 [B2N008-01, 6-[4-[2-[2-(5-Ethoxypyridin-3-yl)ethynyl]benzoyl]piperazin-1-yl]-N-(3,3,3-trifluoropropylsulfonyl)pyridazine-3-carboxamide]	0.0	−0.4
CCOc1cccc(C#Cc2cncc(C(=O)N3CCN(c4ccc(C(=O)NS(=O)(=O)CCC(F)(F)F)nn4)CC3)c2)c1 [B2N009-01, 6-[4-[5-[2-(3-Ethoxyphenyl)ethynyl]pyridine-3-carbonyl]piperazin-1-yl]-N-(3,3,3-trifluoropropylsulfonyl)pyridazine-3-carboxamide]	0.0	−0.4
CCOc1cncc(C#Cc2cncc(C(=O)N3CCN(c4ccc(C(=O)NS(=O)(=O)CCC(F)(F)F)nn4)CC3)c2)c1 [B2N010-01, 6-[4-[5-[2-(5-Ethoxypyridin-3-yl)ethynyl]pyridine-3-carbonyl]piperazin-1-yl]-N-(3,3,3-trifluoropropylsulfonyl)pyridazine-3-carboxamide]	0.0	0.0
CCOc1cccc(-c2ccccc2CCC(=O)N2CCN(c3ccc(C(=O)NS(=O)(=O)CCC(F)(F)F)nn3)CC2)c1 [B2N011-01, 6-[4-[3-[2-(3-Ethoxyphenyl)phenyl]propanoyl]piperazin-1-yl]-N-(3,3,3-trifluoropropylsulfonyl)pyridazine-3-carboxamide]	0.0	0.0
